In this assay the target is T1, FLT3D835Y kinase (Homo sapiens, UniProt P36888, D835Y).
T1 sequence (P36888 27-993 D835Y): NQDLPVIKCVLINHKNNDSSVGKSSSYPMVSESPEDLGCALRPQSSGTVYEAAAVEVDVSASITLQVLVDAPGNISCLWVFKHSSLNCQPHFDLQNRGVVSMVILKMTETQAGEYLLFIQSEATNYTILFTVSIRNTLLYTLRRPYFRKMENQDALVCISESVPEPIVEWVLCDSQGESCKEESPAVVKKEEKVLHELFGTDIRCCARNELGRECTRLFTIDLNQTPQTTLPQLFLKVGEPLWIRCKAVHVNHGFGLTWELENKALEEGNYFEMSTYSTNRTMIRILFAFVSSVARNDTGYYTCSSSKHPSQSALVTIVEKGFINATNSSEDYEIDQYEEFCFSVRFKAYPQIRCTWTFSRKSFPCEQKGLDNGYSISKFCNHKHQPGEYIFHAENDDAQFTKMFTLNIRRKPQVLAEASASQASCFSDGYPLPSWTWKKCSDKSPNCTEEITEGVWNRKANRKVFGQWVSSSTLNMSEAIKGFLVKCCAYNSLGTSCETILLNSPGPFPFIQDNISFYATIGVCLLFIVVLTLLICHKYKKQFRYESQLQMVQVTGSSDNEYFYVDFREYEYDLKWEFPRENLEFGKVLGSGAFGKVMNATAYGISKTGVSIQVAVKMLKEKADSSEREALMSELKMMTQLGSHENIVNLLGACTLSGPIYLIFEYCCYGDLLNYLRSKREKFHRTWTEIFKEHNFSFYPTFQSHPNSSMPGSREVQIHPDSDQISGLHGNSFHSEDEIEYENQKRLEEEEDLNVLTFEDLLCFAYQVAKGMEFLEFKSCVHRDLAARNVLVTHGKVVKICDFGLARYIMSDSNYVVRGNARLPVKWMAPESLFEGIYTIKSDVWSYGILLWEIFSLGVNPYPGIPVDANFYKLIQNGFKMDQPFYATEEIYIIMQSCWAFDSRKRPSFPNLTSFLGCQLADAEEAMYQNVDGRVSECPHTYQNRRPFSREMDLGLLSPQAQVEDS
In words: FLT3D835Y kinase inhibition assay (LanthaScreen TR-FRET). The settings on record: read-out: FLT3 IC50. Type of assay: biochemical. As to the method:
FLT3D835Y Kinase Inhibition Assay
LanthaScreen™ is the detection of Time-Resolved Fluorescence Resonance Energy Transfer (TR-FRET) using lanthanide chelates to measure interactions between various binding partners. The application of TR-FRET to assay kinase activity was first described by Mathis (1995). A TR-FRET assay was used to measure FLT3D835Y kinase inhibitory activity. The assay panel was run on a Biomek FX liquid handling workstations. To the assay plates containing […] compound or control solutions, 4.5 μL of buffer A (50 mM TRIS-HCl pH 7.4, 2 mM DTT, 0.02% Tween 20, 0.02 mM Na3VO4, H2O nanpure) including a generic concentration of ATP (2 μM f.c.) was added per well, followed by […] of buffer B (4 uM ATP in Buffer A) including a generic concentration of polyEAY (50 nM f.c.), FLT3D835Y kinase, and divalent cations. Final concentration of kinase and cations were: [FLT3D835Y kinase]=5.7 nM, [Mg]=3 mM, [Mn]=3 mM. After 1 hour of incubation the kinase reactions were stopped by the addition of 4.5 μL of stop solution D (50 mM EDTA, 20 mM TRIS-HCl pH 7.4, 0.04% NP-40) immediately followed by 4.5 μL of buffer A (50 mM TRIS-HCl pH 7.4, 2 mM DTT, 0.02% Tween 20, 0.02 mM Na3VO4, H2O nanpure) including the Tb-labeled P-20 antibody to give a total detection volume of […]. After an incubation time of 45 min in the dark, the plates were transferred into the Pherastar fluorescence reader for counting. The effect of compound on the enzymatic activity was obtained from the linear progress curves and determined from one reading (end point measurement).
A general note: Time-resolved FRET reads energy transfer from a long-lived donor to a nearby acceptor.
With `Nc1ncc(-c2ccccc2)nc1C(=O)Nc1cnccc1[C@H]1C[C@@H](N)[C@H](O)[C@@H](C2CC2)O1` [Example 346, 3-amino-N-(4-((2R,4R,5S,6R)-4-amino-6-cyclopropyl-5-hydroxytetrahydro-2H-pyran-2-yl)pyridin-3-yl)-6-phenylpyrazine-2-carboxamide], the IC50 (in general, the concentration at which inhibition is half-maximal) came out at 8.5 nM.

As for `C[C@]1(O)[C@@H](N)C[C@H](c2ccncc2NC(=O)c2nc(-c3ccccc3)cnc2N)OC12CC2` [Example 351, 3-amino-N-(4-((5R,7S,8S)-7-amino-8-hydroxy-8-methyl-4-oxaspiro[2.5]octan-5-yl)pyridin-3-yl)-6-phenylpyrazine-2-carboxamide], the IC50 was determined as 5 nM.

In the case of `Nc1ncc(-c2ccccc2)nc1C(=O)Nc1cnccc1[C@H]1C[C@@H](O)[C@H](O)[C@@H](CO)O1` [Example 341, 3-amino-N-(4-((2R,4R,5S,6R)-4,5-dihydroxy-6-(hydroxymethyl)tetrahydro-2H-pyran-2-yl)pyridin-3-yl)-6-phenylpyrazine-2-carboxamide], the IC50 came to 120 nM.

`Nc1ncc(-c2ccccc2)nc1C(=O)Nc1cnccc1[C@@H]1C[C@H](N)[C@]2(O)CCC[C@@H]2O1` [Example 185, 3-amino-N-(4-((2S,4S,4aR,7aS)-4-amino-4a-hydroxyoctahydrocyclopenta[b]pyran-2-yl)pyridin-3-yl)-6-phenylpyrazine-2-carboxamide]: the IC50 was found to be 1000 nM.

In the case of `Nc1ncc(-c2ccccc2)nc1C(=O)Nc1cnccc1[C@@H]1C[C@H](N)[C@@H](O)[C@H](C2CC2)O1` [Example 349, 3-amino-N-(4-((2S,4S,5R,6S)-4-amino-6-cyclopropyl-5-hydroxytetrahydro-2H-pyran-2-yl)pyridin-3-yl)-6-phenylpyrazine-2-carboxamide], the IC50 is 250 nM.

As for `CC[C@H]1O[C@@H](c2ccncc2NC(=O)c2nc(-c3ccccc3)cnc2N)C[C@@H](N)[C@@H]1O` [Example 343, 3-amino-N-(4-((2R,4R,5S,6R)-4-amino-6-ethyl-5-hydroxytetrahydro-2H-pyran-2-yl)pyridin-3-yl)-6-phenylpyrazine-2-carboxamide], the IC50 was determined as 1.8 nM.

With `Nc1ncc(-c2ccccc2)nc1C(=O)Nc1cnccc1[C@H]1C[C@@H](N)[C@@]2(O)CCCC[C@H]2O1` [Example 197, 3-amino-N-(4-((2R,4R,4aS,8aR)-4-amino-4a-hydroxyoctahydro-2H-chromen-2-yl)pyridin-3-yl)-6-phenylpyrazine-2-carboxamide], the IC50 came to 1.4 nM.

For the compound `CCC[C@H]1O[C@@H](c2ccncc2NC(=O)c2nc(-c3ccccc3)cnc2N)C[C@@H](O)[C@@H]1O` [Example 340, 3-amino-N-(4-((2R,4R,5S,6R)-4,5-dihydroxy-6-propyltetrahydro-2H-pyran-2-yl)pyridin-3-yl)-6-phenylpyrazine-2-carboxamide], the IC50 was determined as 110 nM.

`CC(C)[C@H]1C[C@@H](N)C[C@@H](c2ccncc2NC(=O)c2nc(-c3ccccc3)cnc2N)O1` [Example 292, 3-amino-N-(4-((2S,4R,6R)-4-amino-6-isopropyltetrahydro-2H-pyran-2-yl)pyridin-3-yl)-6-phenylpyrazine-2-carboxamide]: the IC50 came to 590 nM.

For `C[C@@]1(O)[C@@H](N)C[C@@H](c2ccncc2NC(=O)c2nc(-c3ccccc3)cnc2N)OC12CC2` [Example 350, 3-amino-N-(4-((5S,7S,8R)-7-amino-8-hydroxy-8-methyl-4-oxaspiro[2.5]octan-5-yl)pyridin-3-yl)-6-phenylpyrazine-2-carboxamide], the IC50 was determined as 44 nM.

For `CC[C@]1(O)[C@H](N)C[C@H](c2ccncc2NC(=O)c2nc(-c3ccccc3)cnc2N)O[C@@H]1C` [Example 187, 3-amino-N-(4-((2R,4R,5S,6R)-4-amino-5-ethyl-5-hydroxy-6-methyltetrahydro-2H-pyran-2-yl)pyridin-3-yl)-6-phenylpyrazine-2-carboxamide], the IC50 was 1.7 nM.

For the compound `CC(C)[C@H]1O[C@@H](c2ccncc2NC(=O)c2nc(-c3ccccc3)cnc2N)C[C@@H](N)[C@@H]1O` [Example 356, 3-amino-N-(4-((2R,4R,5S,6R)-4-amino-5-hydroxy-6-isopropyltetrahydro-2H-pyran-2-yl)pyridin-3-yl)-6-phenylpyrazine-2-carboxamide], the IC50 is 5.8 nM.

In the case of `CC[C@]1(O)[C@H](C)O[C@H](c2ccncc2NC(=O)c2nc(-c3ccccc3)cnc2N)C[C@@H]1N` [Example 189, 3-amino-N-(4-((2S,4S,5R,6S)-4-amino-5-ethyl-5-hydroxy-6-methyltetrahydro-2H-pyran-2-yl)pyridin-3-yl)-6-phenylpyrazine-2-carboxamide], the IC50 was 170 nM.

Turning to `CC(C)(C)[C@@H]1O[C@H](c2ccncc2NC(=O)c2nc(-c3ccccc3)cnc2N)C[C@H](N)[C@H]1O` [Example 355, 3-amino-N-(4-((2S,4S,5R,6S)-4-amino-6-tert-butyl-5-hydroxytetrahydro-2H-pyran-2-yl)pyridin-3-yl)-6-phenylpyrazine-2-carboxamide], the concentration for half-maximal inhibition (IC50) is 2600 nM.

Regarding `Nc1ncc(-c2ccccc2)nc1C(=O)Nc1cnccc1[C@H]1C[C@@H](N)[C@@]2(O)CCC[C@H]2O1` [Example 183, 3-amino-N-(4-((2R,4R,4aS,7aR)-4-amino-4a-hydroxyoctahydrocyclopenta[b]pyran-2-yl)pyridin-3-yl)-6-phenylpyrazine-2-carboxamide], the IC50 was determined as 4.4 nM.

In the case of `C[C@@]1(O)[C@@H](N)C[C@@H](c2ccncc2NC(=O)c2nc(-c3ccccc3)cnc2N)O[C@H]1C1CC1` [Example 347, 3-amino-N-(4-((2S,4S,5R,6S)-4-amino-6-cyclopropyl-5-hydroxy-5-methyltetrahydro-2H-pyran-2-yl)pyridin-3-yl)-6-phenylpyrazine-2-carboxamide], the IC50 stood at 770 nM.

In the case of `C[C@]1(O)[C@H](N)C[C@H](c2ccncc2NC(=O)c2nc(-c3ccccc3)cnc2N)OC12CC2` [Example 353, 3-amino-N-(4-((5R,7R,8S)-7-amino-8-hydroxy-8-methyl-4-oxaspiro[2.5]octan-5-yl)pyridin-3-yl)-6-phenylpyrazine-2-carboxamide], the IC50 amounted to 95 nM.

As to `Nc1ncc(-c2ccccc2)nc1C(=O)Nc1cnccc1[C@@H]1C[C@H](N)[C@]2(O)CCCC[C@@H]2O1` [Example 243, 3-amino-N-(4-((2S,4S,4aR,8aS)-4-amino-4a-hydroxyoctahydro-2H-chromen-2-yl)pyridin-3-yl)-6-phenylpyrazine-2-carboxamide], the IC50 came to 4100 nM.

Regarding `CC[C@H]1O[C@@H](c2ccncc2NC(=O)c2nc(-c3ccccc3)cnc2N)C[C@@H](N)[C@]1(C)O` [Example 348, 3-amino-N-(4-((2R,4R,5S,6R)-4-amino-6-ethyl-5-hydroxy-5-methyltetrahydro-2H-pyran-2-yl)pyridin-3-yl)-6-phenylpyrazine-2-carboxamide], the IC50 worked out at 17 nM.

For the compound `Nc1ncc(-c2ccccc2)nc1C(=O)Nc1cnccc1[C@@H]1C[C@H](N)[C@@H]2CCC[C@@H]2O1` [Example 233, 3-amino-N-(4-((2S,4S,4aS,7aS)-4-aminooctahydrocyclopenta[b]pyran-2-yl)pyridin-3-yl)-6-phenylpyrazine-2-carboxamide], the IC50 was found to be 160 nM.

Turning to `Nc1ncc(-c2ccccc2)nc1C(=O)Nc1cnccc1[C@H]1C[C@@H](N)[C@H]2CCC[C@H]2O1` [Example 199, 3-amino-N-(4-((2R,4R,4aR,7aR)-4-aminooctahydrocyclopenta[b]pyran-2-yl)pyridin-3-yl)-6-phenylpyrazine-2-carboxamide], the IC50 stood at 1.8 nM.
